Test results as given in ChEMBL document CHEMBL5584253, “Polyfunctionalized organoselenides: New synthetic approach from selenium-containing cyanohydrins and anti-melanoma activity” (Bioorg Med Chem Lett, 2024).
Active and inactive are the calls of the source. The rule behind the calls is not given here.

What was measured:
BALB/3T3 [1] = assay: Cytotoxicity against mouse BALB/3T3 cells assessed as reduction in cell viability at 10 to 50 ug/ml measured after 72 hrs; type: toxicity, cell-based; conditions: balb/3t3, 72 h, dose 10-50 µg/ml
BALB/3T3 [2] = assay: Cytotoxicity against mouse BALB/3T3 cells assessed as reduction in cell viability at 50 ug/ml measured after 72 hrs; type: toxicity, cell-based; conditions: balb/3t3, 72 h, dose 50 µg/ml
B16-F10 [3] = assay: Antiproliferative activity against mouse B16-F10 cells assessed as reduction in cell number at 10 to 50 ug/ml measured after 72 hrs; type: functional, cell-based; conditions: dose 10-50 µg/ml
B16-F10 [4] = assay: Antiproliferative activity against mouse B16-F10 cells assessed as reduction in cell number at 50 ug/ml measured after 72 hrs; type: functional, cell-based; conditions: dose 50.0 µg/ml
B16-F10 [5] = assay: Antiproliferative activity against mouse B16-F10 cells assessed as reduction in cell viability at 50 ug/ml measured after 72 hrs by neutral red uptake assay; type: functional, cell-based; conditions: dose 50.0 µg/ml
BALB/3T3 [6] = assay: Cytotoxicity against mouse BALB/3T3 cells assessed as reduction in cell viability at 10 to 50 ug/ml measured after 72 hrs by neutral red staining based analysis; type: toxicity; conditions: balb/3t3, 72 h, dose 10-50 µg/ml
BALB/3T3 [7] = assay: Cytotoxicity against mouse BALB/3T3 cells assessed as reduction in cell viability at 10 to 50 ug/ml measured after 72 hrs by crystal violet staining based analysis; type: toxicity; conditions: balb/3t3, 72 h, dose 10-50 µg/ml
B16-F10 [8] = assay: Antiproliferative activity against mouse B16-F10 cells assessed as reduction in cell viability at 10 to 50 ug/ml measured after 72 hrs; type: functional, cell-based; conditions: dose 10-50 µg/ml

Compound | Activity (BALB/3T3 [1]) | Activity (BALB/3T3 [6]) | Activity (BALB/3T3 [7]) | also measured
O=C(O)C(O)c1ccc([Se]c2ccccc2)cc1 (centres undefined) | Non-Toxic | – | – | Activity (BALB/3T3 [2]): Non-Toxic; Activity (B16-F10 [3]): Active
CCCC[Se]c1ccc(C(O)C(=O)O)cc1 (centres undefined) | Non-Toxic | – | – | Activity (B16-F10 [4]): Active; Activity (B16-F10 [5]): Active
COC(=O)C(OC(C)=O)c1ccc([Se]c2ccccc2)cc1 (centres undefined) | – | Toxic | Toxic | –
OCC(O)c1ccc([Se]c2ccccc2)cc1 (centres undefined) | – | Toxic | Toxic | –
CCCC[Se]c1ccc(C(O)C(=O)OC)cc1 (centres undefined) | Non-Toxic | – | – | Activity (B16-F10 [8]): inactive
COC(=O)C(O)c1ccc([Se]c2ccccc2)cc1 (centres undefined) | – | Toxic | Toxic | –
